Reference: publication PMC12365235, “Molecular mechanisms of thiazide-like diuretics-mediated inhibition of the human Na-Cl cotransporter” (Nature Communications, 2025)

Columns and labels:
hNCC(N149A) = target: T1, hNCC(N149A) (Homo sapiens, UniProt P55017, N149A); test: 125I- uptake assay, hNCC(N149A) variant; assay type: cell-based; conditions: N149A substitution; for IC50: iodide uptake
T1 construct: expressed in transfected cells
T1 sequence (P55017 1-1021 N149A): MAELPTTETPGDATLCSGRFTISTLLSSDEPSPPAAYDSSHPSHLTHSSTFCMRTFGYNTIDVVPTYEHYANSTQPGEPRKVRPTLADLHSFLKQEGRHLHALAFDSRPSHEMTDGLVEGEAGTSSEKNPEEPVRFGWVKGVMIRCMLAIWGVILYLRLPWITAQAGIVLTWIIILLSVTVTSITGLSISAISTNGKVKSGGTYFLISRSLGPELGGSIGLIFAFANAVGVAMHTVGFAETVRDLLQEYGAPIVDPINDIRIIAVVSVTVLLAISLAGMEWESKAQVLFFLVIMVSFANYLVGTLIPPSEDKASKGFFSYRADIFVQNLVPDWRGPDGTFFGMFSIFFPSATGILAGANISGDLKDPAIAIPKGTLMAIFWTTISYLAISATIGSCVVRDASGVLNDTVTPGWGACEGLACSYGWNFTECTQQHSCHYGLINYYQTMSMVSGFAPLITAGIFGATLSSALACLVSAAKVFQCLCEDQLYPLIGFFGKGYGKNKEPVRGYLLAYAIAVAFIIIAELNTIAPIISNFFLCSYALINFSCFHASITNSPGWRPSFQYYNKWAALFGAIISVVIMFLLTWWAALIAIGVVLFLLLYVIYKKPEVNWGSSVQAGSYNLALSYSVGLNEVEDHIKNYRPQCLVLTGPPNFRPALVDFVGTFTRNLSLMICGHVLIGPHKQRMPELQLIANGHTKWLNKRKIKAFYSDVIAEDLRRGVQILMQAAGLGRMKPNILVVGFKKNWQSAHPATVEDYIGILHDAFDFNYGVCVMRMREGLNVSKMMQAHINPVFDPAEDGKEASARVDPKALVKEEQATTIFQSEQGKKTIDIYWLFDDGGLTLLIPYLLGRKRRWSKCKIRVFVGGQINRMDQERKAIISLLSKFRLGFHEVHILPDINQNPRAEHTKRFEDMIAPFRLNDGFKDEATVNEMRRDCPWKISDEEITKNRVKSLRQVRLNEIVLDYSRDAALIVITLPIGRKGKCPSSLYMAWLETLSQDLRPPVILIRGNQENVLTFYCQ
Protocol: (§1) HEK293S cell lines, cultured in 293 Freestyle medium (Life Technologies; plus 10% fetal bovine serum), stably expressing hNCC and its variants were generated following published protocols. Cells were transfected using Lipofectamine 3000 (Invitrogen) with a pSBbi-RP-based plasmid containing hNCC or its variants and the SB100X vector. Puromycin (2 μg/mL; Gemini Bio-Products) was used for selection of stable cell lines.
(§2) To prepare for the uptake experiment, cells were plated at 0.5 × 10^6 cells/well in 24-well plates one day in advance. To activate NCC, cells were treated with a chloride-free hypotonic solution composed of 67.5 mM sodium-, 2.5 mM potassium-, 0.25 mM magnesium-, and 0.25 mM calcium-gluconate, as well as 7.5 mM HEPES pH 7.4 (buffered using Tris) at 37 °C for 10 min[72]. After the activation step, the experiments were carried out at room temperature. Ten minutes before the start of ^125I^− uptake, 70 μM Bumetanide (Thermo Scientific Chemicals) and 100 μM 4,4′-diisothiocyanatostilbene-2,2′-disulfonic acid (DIDS; Sigma) were added to suppress background iodide uptake activity. Indicated thiazide diuretics were also added to the indicated concentrations 10 min before the start of ^125I^− uptake. The original buffer was switched to an uptake buffer composed of 135 mM Na-gluconate, 5 mM K-gluconate, 1 mM Mg-gluconate, 1 mM Ca-gluconate, 70 μM bumetanide, 100 μM DIDS, 1 mM NaI, 0.25 μCi/ml Na^125I (American Radiolabeled Chemicals, Inc.), and 15 mM HEPES pH 7.4 (buffered using Tris), in the presence or absence of thiazide diuretics to initiate ^125I^− uptake. The ^125I^− uptake process lasted 1 h and was stopped by two rapid washes using ice-cold 110 mM MgCl2. Cells lysed using 1% sodium dodecyl sulfate (SDS) were analyzed by scintillation counting.
To calculate the fold change of the half-maximal inhibitory concentration (IC50) between hNCC(WT) and different hNCC variants, individual dose-response curves were normalized first using the smallest mean and the value of the lowest concentration as 0% and 100%, respectively. The normalized data were then fitted using the “EC50 shift” nonlinear regression in GraphPad Prism 10 with the shared EC50Control assigned to be the IC50 of hNCC(WT). The following constraints were used in the EC50 shift analysis. The EC50Control was set to be shared across all curves under analysis and constrained to be greater than 0. The EC50Ratio was constrained to be greater than 0. The bottom, top, and HillSlope were constrained to be 0, 100, and −1, respectively. For Fig. 1f, g and Supplementary Fig. 2d, GraphPad Prism 10 was used to perform curve fitting and IC50 calculation for normalized data using y = 100/(1 + (x/IC50)).

[1] = design: method as in PMID 354839; conditions: chlorthalidone dose 2- to 4-fold over the currently recommended level; cited from earlier work
hNCC(V229M) = test: 125I- uptake assay, hNCC(V229M) variant; assay type: cell-based, human; conditions: V229M polymorphism
Protocol: as §1
as §2, with “The original buffer was switched to an uptake buffer composed of 135 mM Na-gluconate, 5 mM K-gluconate, 1 mM Mg-gluconate, 1 mM Ca-gluconate, 70 μM bumetanide, 100 μM DIDS, 1 mM NaI, 0.25 μCi/ml Na^125I (American Radiolabeled Chemicals, Inc.), and 15 mM HEPES pH 7.4 (buffered using Tris), in the presence or absence of thiazide diuretics to initiate ^125I^− uptake. The ^125I^− uptake process lasted 1 h and was stopped by two rapid washes using ice-cold 110 mM MgCl2.” left out, “counting. […]” for “counting.”

Compound | fold less sensitive than hNCC(WT) (hNCC(N149A)) | IC50 (hNCC(N149A)) | serum glucose and uric acid [1] | fold reduction of sensitivity relative to hNCC(WT) (hNCC(V229M))
NS(=O)(=O)c1cc(C2(O)NC(=O)c3ccccc32)ccc1Cl (stereo not drawn) [chlorthalidone] | ~95 fold | 2.2 µM | elevated levels of serum glucose and uric acid | 
CC1Cc2ccccc2N1NC(=O)c1ccc(Cl)c(S(N)(=O)=O)c1 (stereo not drawn) [indapamide] | approximately 27 fold | 0.34 µM |  | 
CN1C(CSCC(F)(F)F)Nc2cc(Cl)c(S(N)(=O)=O)cc2S1(=O)=O (stereo not drawn) [polythiazide] |  |  |  | ~ 5 fold
